84 compounds from a melting point compilation (Tetko et al.; mined from patent text by program, amines drawn as free bases though some values may be those of a salt) can be followed below.

Take `Oc1ccc(-c2nc3ccc(O)cc3o2)c(O)c1`: the melting point was 293 to 296 °C. Next, `Cc1nc2c(-c3cccc(N4CCN(CCO)CC4)c3)cnn2c(N)c1-c1ccc(F)c(Cl)c1`: 104 to 107 °C; `CN(C)CC(=O)Nc1ccc2c(c1)C(=O)c1cc(NC(=O)CN(C)C)ccc1C2=O`: 218 °C; `Cc1cn2c(c1C(=O)OC(C)C)SCC2CC(N)=O` (centres undefined): 143 to 146 °C.

As to `COC(=O)C(OC)(OC)c1ccccc1Br`, the melting point was 55 °C.

Compound `CNC(=O)c1cccc(-c2cccc3cc(Cc4cccc(C(F)(F)F)c4)sc23)c1` showed a melting point of 104 to 106 °C.

`Cc1cc(-c2ccc(C(=O)N3CCN(S(=O)(=O)c4ccc5cc(Br)ccc5c4)CC3)cc2)ccn1`: the melting point was 204 to 205 °C. Next, `COc1ccc2cc(C(C)C(=O)NCC3(C)CCC4C(=C(C)C(C)=CC4(C)O)O3)ccc2c1` (centres undefined): 67 to 70 °C; `Cc1ccc([N+](=O)[O-])cc1Nc1nccc(-c2ccc(Cl)nc2)n1`: 210 to 212 °C.

`Cc1oc(-c2ccccc2)nc1COc1ccc(CCCO)cc1` displayed a melting point of 70 to 71 °C.

The compound `COc1ccc2c(c1)C(=O)N(c1ccc3cccnc3c1)C2` registered a melting point of 220 to 223 °C. Next, `CC(C)[C@H](NC(=O)OCc1ccccn1)C(=O)N[C@@H](Cc1ccccc1)C[C@H](O)[C@H](Cc1ccccc1)NC(=O)[C@@H](NC(=O)OCc1ccccn1)C(C)C`: 220 to 222 °C; `COc1cc2cc3c(ccc4ccccc43)nc2cc1OC`: 181 to 182 °C; `COc1ccc2c(Cc3nc4c(F)c(F)cc(F)c4s3)cn(CC(=O)O)c2c1`: 118 to 120 °C. Next, `COc1ccc(Oc2nccc(-c3c(-c4ccc(F)cc4)ncn3C3CCNCC3)n2)cc1`: 190 to 191 °C. Next, `CCOC(=O)COc1ccc(C(=O)Nc2ccccc2S(=O)(=O)c2ccccc2C#N)cc1`: 131 to 132 °C; `Cc1c(C)c2c(c(C)c1NC(=O)OC(C)(C)C)C(c1ccc(C(C)C)cc1)C(C)(C)O2` (centres undefined): 119 to 120 °C. Take `Cn1cc(C2=C(c3cn(CCCNc4ccc([N+](=O)[O-])cn4)c4ccccc34)C(=O)NC2=O)c2ccccc21`: the melting point was 245 to 247 °C.

`Cn1cc(C(N)=O)c(=O)c2ccc(F)cc21` yielded a melting point of 317 to 318 °C. Compound `CNC(=O)Sc1ncc(Cl)cn1` registered a melting point of 115 °C.

`CCOC(=O)C(C(=O)OCC)=C1NC(=O)N(Cc2ccccc2)C1=O` came in with a melting point of 149 to 151 °C. With `C=CCSC(=NC(=O)OC)NC(=O)Nc1ccc(C)cc1`, the melting point was 103 to 105 °C.

In turn, `CN1C(=O)CCC2(C)C3CCC4(C)C(OCC(=O)O)CCC4C3CCC12` (centres undefined) had a melting point of 180 to 184 °C. For the compound `COC(=O)Nc1nc(-c2ccccc2)c(-c2nc3ccccc3c(=O)n2-c2ccc(Cl)cc2)s1`, the melting point is greater than 275 °C. The compound `O=C(CBr)c1ccc(OCc2ccccc2)c(CCOCc2ccccc2)c1` showed a melting point of 53 to 56 °C. For `COC(=O)CC1=C(C)Cc2ccc(F)cc21`, the melting point was determined as 53 °C. Next, `COc1cc(OC)c(NC2=Nc3ccccc3CS2)cc1Cl`: 157 to 158 °C; `CCCOc1ccccc1-c1nc2cc(NC)ccc2c(=O)[nH]1`: 204 to 205 °C; `CCCc1cc(CC(=O)O)ccc1OCc1ccc2ccccc2n1`: 135 °C. Next, `CC1(C)CCCN(C(=O)[C@H]2C[C@@H](S(=O)(=O)c3ccccc3)[C@@H](c3ccccc3F)N2C(=O)CNC(=O)Nc2cccc(C(=O)O)c2)C1` (racemic): 258 °C; `CCOc1ccc(OCCCN2CCN(c3ccc(Cl)nn3)CC2)cc1`: 125 to 127 °C; `CC=CCN(C)c1ncnc2c1ncn2C1OC(CO)C(O)C1O` (centres undefined): 160 to 162 °C.

Consider `CCOC(=O)C1CN(c2ccc(OC)cc2)CC1=O` (centres undefined), for which the melting point fell in the range of 58 to 60 °C.

`CCCNC(=O)Nc1ccc(N(C)C)cc1C(=O)NCC1CCN(C(c2ccccc2)c2ccccc2)CC1` gave a melting point of 199 to 201 °C. `Cc1cn(-c2ccc(NC(=O)c3ccc(C)c(Nc4nccc(-c5cccnc5)n4)c3)cc2C(F)(F)F)cn1` displayed a melting point of 154 to 163 °C. In the case of `CCOC(=O)c1cc(-c2ccc(N)cc2)cnc1C`, the melting point lay in the range of 137 to 138 °C. With `CC(S)C(=O)N1c2ccccc2CCC1C(=O)O` (centres undefined), the melting point is 141 to 143 °C. Next, `CCOC(=O)c1cn(-c2nccs2)c2c(F)c(F)c(F)cc2c1=O`: 172 to 174 °C; `CCOC(=O)C(CCCCNC(=O)OC(C)(C)C)NC(=O)C=CC(=O)c1ccccc1` (centres undefined): 91 to 94 °C; `Clc1ccccc1-c1cc(-c2ccccc2)c(-c2ccccc2Cl)nn1`: 176 to 178 °C. Next, `O=C(O)Cc1cc(C(=O)c2ccccc2)cc(Br)c1O`: 132 °C. Next, `CN(C)c1nc2c(c(N3CCN(Cc4ccccc4)CC3)n1)SCCC2`: 106 to 108 °C; `COc1ccc(-c2cc3ncnc(Nc4ccc5[nH]ccc5c4)c3s2)cc1`: 150 to 180 °C; `CCC(NC(=NC#N)Nc1cccnc1)c1cccc(Cl)c1` (centres undefined): 153 to 155 °C. In turn, `COC(=O)c1c(O)c2cc(OCc3ccccc3)ccc2c(=O)n1CC(C)C` yielded a melting point of 109 to 110 °C. Next, `COC(=O)COc1ccc(C(=O)NN(C)C(=O)OC(C)(C)C)cc1`: 158 to 159 °C; `CO[C@@H]1[C@@H](OC)[C@H](C)O[C@@H](ONC(=O)c2ccc(-c3cn(-c4ccc(OC(F)(F)F)cc4)cn3)cc2)[C@@H]1OC`: 185 °C; `CCC(Oc1cccc(N(C)C)c1)C(=O)OC1CC(O)C=C2C=CC(C)C(CCC3CC(O)CC(=O)O3)C21` (mixture of isomers): 124 to 126 °C. Next, `Cc1cc(Cl)ccc1N1C(=O)CON(C)C1=S`: 141 to 143 °C. Next, `CNC1=NN(C(=O)c2ccccc2)C(C)(C)S1`: 130 to 136 °C; `CN(CCO)C(=O)c1c(-c2ccc(C(C)(C)C)cc2)n(C)n(-c2ccc(C#N)cc2)c1=O`: 210 to 213 °C; `CC(=O)c1ccc(Nc2cnc3c(NCc4ccccc4)nc(NCCO)nc3c2)cc1`: 125 to 126 °C. For `Nc1cc(C2=NOC(c3cc(Cl)cc(Cl)c3)(C(F)(F)F)C2)ccc1C(=O)NCC(F)(F)F` (centres undefined), the melting point lay within 78 to 79 °C. Next, `Cc1nc2cccc(OCC(C)(C)NC(=O)C3CCC3)c2c(N)c1C(=O)O`: 186 to 190 °C; `Fc1ccc(OC2CCN(CCc3c[nH]c4ccc(OCc5ccccc5)cc34)CC2)cc1`: 134 to 136 °C. Next, `CCOC(=O)C1=C(C2CC2)Nc2n[nH]cc2C1c1ccccc1Br` (centres undefined): 168 to 170 °C; `Fc1cc(Cl)ccc1-n1nc2c(c1Br)CCCCC2`: 59 to 60 °C; `CCOc1ccc(-c2c(C(=O)OC)c(C(=O)OC)c(O)c3cc(OC)c(OC)c(OC)c23)cc1OCC`: 138 to 140 °C.

In turn, `CC(=O)CN1CCNC1=Nc1cc2c(cc1Br)OCCO2` yielded a melting point of 98 to 100 °C. Next, `C=Cn1cc(C(=O)O)c(=O)c2cc(F)c(N3CCNCC3)cc21`: 248 to 251 °C.

`CCCCN=C(O)c1c(Cl)c(Cl)c(Sc2ccccc2)c(Cl)c1C(=O)O`: the melting point lay within 159 to 163 °C. Next, `O=c1c2cc(F)c(F)cc2n(-c2ccccc2F)c(=O)n1OCc1ccccc1`: 204 to 206 °C.

For the compound `Cc1ccc(-n2nc3c4cc(Cc5ccccc5)ccc4[nH]c(=O)n3c2=O)cc1`, the melting point was 299 °C. Next, `CN(c1cccc2cc(-c3nccs3)[nH]c12)S(=O)(=O)c1ccsc1CCl`: 190 °C; `O=c1c(CCCc2ccccn2)cc2cccnc2n1-c1cccc([N+](=O)[O-])c1`: 201 to 202 °C; `COC(NC(C)=O)(C(=O)OC(C)(C)C)C(Br)Br` (centres undefined): 115 to 116 °C.

Regarding `CC1(CSc2ccc(Cl)cc2)COC2(CCCCCCCCCCC2)OO1` (centres undefined), the melting point lay in the range of 93 to 94 °C. In the case of `COc1cc2ncnc(N3CCC(C(C)CN4CCCS4(=O)=O)C(O)C3)c2cc1OC` (centres undefined), the melting point lay in the range of 173 to 174 °C. Next, `CCc1cc(S(=O)(=O)c2ccc(N)cc2)cc(N2CCCC2)n1`: 154 to 155 °C; `CN1C(=O)[C@@H](NC(=O)[C@H](N)Cc2ccccc2)N=C(C2CCCCC2)c2ccccc21`: 75 to 78 °C; `Cc1nn2c(=O)c(CCCl)c(C)nc2s1`: 118 °C. `O=S1(=O)N=C(OCc2snc(Cl)c2Cl)c2ccccc21`: the melting point was in the range of 165 to 167 °C. Next, `Cc1c(NC(=O)CC(C)(C)C)cc2c(c1C)OC(C)(C)C2(O)c1cccc(C=O)c1` (centres undefined): 189 to 190 °C; `COc1cc2c(cc1OC)C(C(COC(=O)Nc1ccccc1)COC(=O)Nc1ccccc1)N(Cc1ccccc1)CC2` (centres undefined): 185 °C. For the compound `CC(=O)c1ccc(-c2ccc(OCc3ccc4ccccc4n3)cc2)c([N+](=O)[O-])c1`, the melting point lay in the range of 160 to 162 °C. Next, `CN(C1CCN(CC(C)(C)O)CC1)S(=O)(=O)c1ccc(Nc2nccc(Nc3ccc(F)c(F)c3)n2)cc1`: 234 to 235 °C; `Cc1cc(-c2ccc(S(C)(=O)=O)cc2)n(-c2ccc(C)c(C)c2)c1`: 126 to 128 °C.

As for `COCC(C#N)=Cc1cc(OC)c2c(c1)OCO2`, the melting point was 115 °C. Next, `COc1ccc(-c2cc3ccc(OC)cc3c(=S)[nH]2)cc1`: 188 to 190 °C; `O=C1c2c(Cl)cccc2-n2cnc(-c3noc(CN4Cc5ccccc5C4)n3)c2[C@@H]2CCN12`: 218 to 222 °C; `Cc1cn(C(C)C(=O)N(C)c2ccccc2)nc1-c1ccccc1` (centres undefined): 112 to 114 °C.

For `Nc1nc2ccccc2c2sc(CCc3ccccc3)nc12`, the melting point lay within 158 to 159 °C. Next, `O=C(OCc1ccccc1)c1cc2cc(OCc3ccccc3)ccc2cc1OCc1ccccc1`: 99 to 102 °C.

Regarding `CCCCc1nc2c(N)nc3ccccc3c2n1CCCNC(=S)NCCC`, the melting point was 144 to 146 °C.

Broadly, the melting point is the temperature of the solid-liquid transition.
